26 molecules from PMC9186351, “Discovery of N-quinazolinone-4-hydroxy-2-quinolone-3-carboxamides as DNA gyrase B-targeted antibacterial agents” (Journal of Enzyme Inhibition and Medicinal Chemistry, 2022) can be followed below.

Each structure is given as a SMILES string. Values after ≈ are worked out from the molar mass of the structure shown. Values joined by “and” are separate entries in the source; they are usually repeats but may differ in a detail not shown here. Equal values may be shown once. Read-outs that look alike come from different tables or passages of the source.

As usually defined, the inhibition is how much of the control response was suppressed. The IC50 is the point on the concentration scale where inhibition reaches its midpoint. The melting point is the temperature, or range, at which the solid turns liquid. A word on the MIC: it is the lowest concentration that inhibits growth of the organism.

One data set concerns the target T1, S. aureus GyrB (Staphylococcus aureus, UniProt P0A0K8).
T1 construct: purchased Inspiralis Ltd., Norwich, UK
As to the kind of experiment: S. aureus GyrB (Gyrase ATPase) inhibition assay, ADP-Glo. The format is biochemical. As to conditions: for inhibition at 10 µM: read-out: GyrB inhibition rate (%) at 10 μM; for IC50: IC50 for GyrB (µM, mean ± SD), S. aureus Gyrase ATPase inhibition, average of duplicates. As for the experimental part:
The IC50 values for S. aureus GyrB were determined according to our previously reported protocol.[16] For this assay, the reaction mixture (10 μL) consisted of 5 nM S. aureus Gyrase (Inspiralis Ltd., Norwich, UK), assay buffer [40 mM HEPES-KOH (pH 7.6), 10 mM magnesium acetate, 10 mM dithiothreitol, 50 g/L BSA, and 500 mM potassium glutamate], the test compound (0.01–100 μM), 1% DMSO, 10 nM linear pBR322 DNA, and […]. The target compound was dissolved in DMSO (10 mM). A series of dilutions (0.1–1000 μM) were prepared from the stock solution with the assay buffer and DMSO. The dilutions (1 μL) were respectively added to the PCR tubes along with the buffer (7 μL), the linear pBR322 DNA (0.5 μL), S. aureus Gyrase (0.5 μL), and ATP (1 μL). The PCR tubes were sealed and incubated at 37 °C for 30 min. The ADP-Glo reagent (40 μL) was added to stop the reaction and use up the remaining ATP.
The detection reagent (50 μL) was then added and mixed. After 5 min, the mixture in each PCR tube was put in the well of a 96-well plate and its luminescence was measured by the BioTek Synergy 2 microplate reader. The activity values (%) of S. aureus Gyrase treated by the test compound at different concentrations were determined based on the luminescence. GraphPad Prism version 5 software (GraphPad Software Inc., La Jolla, CA) was used to calculate the IC50 values.
For orientation: In ADP-Glo the light output rises with the ADP produced.

Data set [1] concerns methicillin-sensitive S. aureus (MSSA). As to the kind of experiment: MIC by broth microdilution, MSSA isolates. Particulars: Staphylococcus aureus. The format is cell-based. As for the experimental part:
All of the bacterial strains used in this study were obtained from the Collection Centre of Pathogen Microorganism of Chinese Academy of Medical Sciences (CAMS-CCPM-A) in China. All of the isolates were stored at −80 °C and streaked on tryptic soy agar (TSA) plates to obtain overnight cultures. The MICs of the test compounds were determined by the broth microdilution method in accordance with the Clinical and Laboratory Standards Institute (CLSI) guidelines.[20] Cation-adjusted Mueller-Hinton broth (CAMHB) was used as the growth medium for MIC assays. Briefly, 100 μL of serially diluted compounds (starting concentrations were 64 μg/mL) in CAMH broth were added to the wells of 96-well microtiter plates. Then, 10 µL of 5 × 10^6 CFU/mL bacterial culture was added to each well. […] The MIC was defined as the lowest concentration of a compound that inhibited visual growth of the bacteria. Vancomycin was set as the positive control for this assay.

The mark [2] stands for this setting: ATCC 29213 / BAA-1708 / BAA-976 / MSSA, ATCC 29213, 15, 18-3, BAA976, BAA1708, span over isolates, read-out: MIC over the five MSSA isolates.
Where [3] appears, read: ATCC 29213 / MSSA, MSSA ATCC 29213, read-out: MIC.
The mark [4] stands for this setting: BAA-976 / MSSA, MSSA BAA976, read-out: MIC.
Where [5] appears, read: BAA-1708 / MSSA, MSSA BAA1708, read-out: MIC.

T1 sequence (P0A0K8 whole entry): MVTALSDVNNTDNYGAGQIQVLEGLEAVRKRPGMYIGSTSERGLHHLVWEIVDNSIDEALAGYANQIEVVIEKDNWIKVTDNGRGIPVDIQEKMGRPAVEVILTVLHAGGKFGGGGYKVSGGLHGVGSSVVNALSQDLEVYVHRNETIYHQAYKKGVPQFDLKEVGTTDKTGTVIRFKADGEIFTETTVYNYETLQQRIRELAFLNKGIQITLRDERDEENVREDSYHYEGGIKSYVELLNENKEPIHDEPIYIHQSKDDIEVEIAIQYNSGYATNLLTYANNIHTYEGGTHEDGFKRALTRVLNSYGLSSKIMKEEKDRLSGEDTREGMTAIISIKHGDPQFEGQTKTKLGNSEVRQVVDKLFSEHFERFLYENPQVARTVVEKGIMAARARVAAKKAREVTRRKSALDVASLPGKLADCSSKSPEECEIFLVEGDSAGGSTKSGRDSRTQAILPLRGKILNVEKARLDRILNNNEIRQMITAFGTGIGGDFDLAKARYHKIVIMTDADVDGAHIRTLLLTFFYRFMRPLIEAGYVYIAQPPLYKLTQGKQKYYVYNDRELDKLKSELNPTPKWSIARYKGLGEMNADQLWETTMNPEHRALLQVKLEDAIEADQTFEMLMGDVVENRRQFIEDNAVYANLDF
T1 sequence (P20831 whole entry, further chain): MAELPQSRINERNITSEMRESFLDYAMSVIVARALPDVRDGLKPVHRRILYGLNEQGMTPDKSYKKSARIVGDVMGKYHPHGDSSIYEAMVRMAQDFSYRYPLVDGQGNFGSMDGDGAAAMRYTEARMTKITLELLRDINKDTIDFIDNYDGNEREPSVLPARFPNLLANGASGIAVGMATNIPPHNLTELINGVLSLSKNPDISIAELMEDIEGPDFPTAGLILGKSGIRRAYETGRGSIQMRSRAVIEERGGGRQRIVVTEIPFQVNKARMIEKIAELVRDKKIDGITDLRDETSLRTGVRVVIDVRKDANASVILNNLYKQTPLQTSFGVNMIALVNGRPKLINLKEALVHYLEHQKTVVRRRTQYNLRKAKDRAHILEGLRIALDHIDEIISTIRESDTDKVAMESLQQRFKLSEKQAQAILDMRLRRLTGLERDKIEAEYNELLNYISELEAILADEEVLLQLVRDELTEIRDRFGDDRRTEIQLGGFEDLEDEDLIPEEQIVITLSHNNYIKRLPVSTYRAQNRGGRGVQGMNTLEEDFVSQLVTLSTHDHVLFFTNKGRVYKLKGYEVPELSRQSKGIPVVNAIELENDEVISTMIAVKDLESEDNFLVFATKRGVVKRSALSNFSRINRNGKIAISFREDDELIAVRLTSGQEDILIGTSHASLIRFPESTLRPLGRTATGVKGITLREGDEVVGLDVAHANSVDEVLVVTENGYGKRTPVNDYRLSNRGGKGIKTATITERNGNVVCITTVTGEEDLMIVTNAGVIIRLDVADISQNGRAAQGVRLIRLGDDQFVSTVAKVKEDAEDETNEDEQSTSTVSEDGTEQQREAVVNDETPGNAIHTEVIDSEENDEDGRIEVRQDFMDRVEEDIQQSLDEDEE

`Cc1noc(NC(=O)c2c(O)c3cccc4c3n(c2=O)CCC4)c1C` [AE-641/00628057]: the inhibition at 10 µM on S. aureus GyrB was found to be 7%. As to `O=C(Nc1ccccc1-c1ccccc1)c1c(O)c2cccc3c2n(c1=O)CCC3` [AE-641/00629040], the inhibition at 10 µM at S. aureus GyrB was 11%.

In the case of `CCCCCNC(=O)c1c(O)c2ccccc2n(C)c1=O` [AG-690/11232717], on S. aureus GyrB, the inhibition at 10 µM was determined as 13%. With `CCCCCCn1c(=O)c(C(=O)Nc2ccccc2Br)c(O)c2ccccc21` [AG-690/11232728], the inhibition at 10 µM at S. aureus GyrB was found to be 12%. `CCCCCC(=O)NNC(=O)c1c(O)c2ccccc2n(CCC)c1=O` [AG-690/11232780]: the inhibition at 10 µM at S. aureus GyrB was determined as 3%.

Regarding `CCCCCCn1c(=O)c(C(=O)Nc2ccc(Cl)cn2)c(O)c2ccccc21` [AG-690/11557825], the inhibition at 10 µM at S. aureus GyrB was 6%. Turning to `CCn1c(=O)c(C(=O)NNC(=O)c2ccccc2Br)c(O)c2ccccc21` [AG-690/11765298], the inhibition at 10 µM on S. aureus GyrB was found to be 45%. In the case of `CCn1c(=O)c(C(=O)NNS(=O)(=O)c2ccc(Br)cc2)c(O)c2ccccc21` [AG-690/11765340], at S. aureus GyrB, the inhibition at 10 µM is 10%. The same measure, in the same setting: the figure for `C=CCn1c(=O)c(C(=O)NNC(=O)Cc2ccncc2)c(O)c2ccccc21` [AG-690/36469055] is 15%; for `CCCCCCn1c(=O)c(C(=O)Nc2nc(C)cs2)c(O)c2ccccc21` [AG-690/36956124] it is 10%; for `CCCn1c(=O)c(C(=O)NNC(=O)Cc2ccccc2)c(O)c2ccccc21` [AG- 690/36956135] it is 6%. Regarding `CCCCCc1nc2ccc(Cl)cc2c(=O)n1NC(=O)c1c(O)c2ccccc2n(CC)c1=O` [f2, N-(6-chloro-4-oxo-2-pentylquinazolin-3(4H)-yl)-1-ethyl-4-hydroxy-2-oxo-1,2-dihydroquinoline-3-carboxamide], the melting point was in the range of 141.5 to 143.1 °C. Besides, the IC50 on S. aureus GyrB was determined as 1.58 ± 0.06 µM.

Molecule `CCCCCc1nc2ccc(C)cc2c(=O)n1NC(=O)c1c(O)c2ccccc2n(CC)c1=O` [f3, N-(6-methyl-4-oxo-2-pentylquinazolin-3(4H)-yl)-1-ethyl-4-hydroxy-2-oxo-1,2-dihydroquinoline-3-carboxamide] gave a melting point of 160.6 to 162.3 °C. Further, at S. aureus GyrB, the IC50 worked out at 0.83 ± 0.11 µM. `CCCCCc1nc2ccc(OC)cc2c(=O)n1NC(=O)c1c(O)c2ccccc2n(CC)c1=O` [f4, N-(6-methoxy-4-oxo-2-pentylquinazolin-3(4H)-yl)-1-ethyl-4-hydroxy-2-oxo-1,2-dihydroquinoline-3-carboxamide] registered a melting point of 98.7 to 99.9 °C. Further, at S. aureus GyrB, the IC50 was 0.31 ± 0.07 µM. Besides, in data set [1] (setting [2]), the MIC is no less than 32 µg/mL. For the same molecule, the MIC in data set [1] (setting [3]) is greater than 64 µg/mL. Further, the MIC in data set [1] (setting [4]) stood at 32 µg/mL (≈ 67.2 µM). Also, the MIC in data set [1] (setting [5]) was greater than 64 µg/mL. The MIC in data set [1] (MSSA, MSSA 15, read-out: MIC) came out at 64 µg/mL (≈ 134 µM). Further, the MIC in data set [1] (MSSA, MSSA 18-3, read-out: MIC) was determined as 64 µg/mL (≈ 134 µM). `CCCCCc1nc2ccc(C(F)(F)F)cc2c(=O)n1NC(=O)c1c(O)c2ccccc2n(CC)c1=O` [f5, N-(4-oxo-2-pentyl-6-(trifluoromethyl)quinazolin-3(4H)-yl)-1-ethyl-4-hydroxy-2-oxo-1,2-dihydroquinoline-3-carboxamide]: the melting point fell in the range of 128.3 to 130.2 °C. Moreover, at S. aureus GyrB, the IC50 is 0.81 ± 0.17 µM.

As to `CCCCCc1nc2cc(Cl)ccc2c(=O)n1NC(=O)c1c(O)c2ccccc2n(CC)c1=O` [f6, N-(7-chloro-4-oxo-2-pentylquinazolin-3(4H)-yl)-1-ethyl-4-hydroxy-2-oxo-1,2-dihydroquinoline-3-carboxamide], the melting point lay within 128.4 to 130.2 °C. Moreover, the IC50 at S. aureus GyrB was 0.83 ± 0.01 µM. Turning to `CCCCCc1nc2cc(C)ccc2c(=O)n1NC(=O)c1c(O)c2ccccc2n(CC)c1=O` [f7, N-(7-methyl-4-oxo-2-pentylquinazolin-3(4H)-yl)-1-ethyl-4-hydroxy-2-oxo-1,2-dihydroquinoline-3-carboxamide], the melting point was 167.2 to 168.4 °C. Moreover, the IC50 at S. aureus GyrB was 24.4 ± 4.5 µM. Taken in the same sequence, the figures for `CCCCCc1nc2cc(OC)ccc2c(=O)n1NC(=O)c1c(O)c2ccccc2n(CC)c1=O` [f8, N-(7-methoxy-4-oxo-2-pentylquinazolin-3(4H)-yl)-1-ethyl-4-hydroxy-2-oxo-1,2-dihydroquinoline-3-carboxamide] were 146.8 to 147.6 °C and 7.9 ± 0.1 µM.

In turn, `CCCCCc1nc2cc(OC)c(OC)cc2c(=O)n1NC(=O)c1c(O)c2ccccc2n(CC)c1=O` [f9, N-(6,7-dimethoxy-4-oxo-2-pentylquinazolin-3(4H)-yl)-1-ethyl-4-hydroxy-2-oxo-1,2-dihydroquinoline-3-carboxamide] displayed a melting point of 172.4 to 174.1 °C. Besides, the IC50 on S. aureus GyrB was found to be 1.06 ± 0.13 µM. As to `CCCCCc1nc2c(Cl)cccc2c(=O)n1NC(=O)c1c(O)c2ccccc2n(CC)c1=O` [f10, N-(8-chloro-4-oxo-2-pentylquinazolin-3(4H)-yl)-1-ethyl-4-hydroxy-2-oxo-1,2-dihydroquinoline-3-carboxamide], the melting point was 158.6 to 160.4 °C. Moreover, on S. aureus GyrB, the IC50 worked out at 9.7 ± 2.1 µM. `CCCCCc1nc2c(C)cccc2c(=O)n1NC(=O)c1c(O)c2ccccc2n(CC)c1=O` [f11, N-(8-methyl-4-oxo-2-pentylquinazolin-3(4H)-yl)-1-ethyl-4-hydroxy-2-oxo-1,2-dihydroquinoline-3-carboxamide] gave a melting point of 142.7 to 144.3 °C. At S. aureus GyrB, the IC50 is 0.77 ± 0.02 µM. For the molecule `CCCCCc1nc2c(OC)cccc2c(=O)n1NC(=O)c1c(O)c2ccccc2n(CC)c1=O` [f12, N-(8-methoxy-4-oxo-2-pentylquinazolin-3(4H)-yl)-1-ethyl-4-hydroxy-2-oxo-1,2-dihydroquinoline-3-carboxamide], the melting point lay in the range of 178.3 to 180.1 °C. In addition, the IC50 at S. aureus GyrB was 0.878 µM and 0.88 µM. Regarding `CCn1c(=O)c(C(=O)Nn2c(C)nc3ccccc3c2=O)c(O)c2ccccc21` [f13, N-(2-methyl-4-oxoquinazolin-3(4H)-yl)-1-ethyl-4-hydroxy-2-oxo-1,2-dihydroquinoline-3-carboxamide], at S. aureus GyrB, the IC50 amounted to 1.64 ± 0.23 µM.

`CCc1nc2ccccc2c(=O)n1NC(=O)c1c(O)c2ccccc2n(CC)c1=O` [f14, N-(2-ethyl-4-oxoquinazolin-3(4H)-yl)-1-ethyl-4-hydroxy-2-oxo-1,2-dihydroquinoline-3-carboxamide]: at S. aureus GyrB, the IC50 amounted to 0.28 ± 0.04 µM. Moreover, the MIC in data set [1] (setting [2]) was no less than 32 µg/mL; in data set [1] (setting [3]) it was greater than 64 µg/mL; in data set [1] (setting [4]), 32 µg/mL (≈ 79.1 µM); in data set [1] (setting [5]) it was 64 µg/mL (≈ 158 µM); in data set [1] (MSSA, MSSA 15, read-out: MIC), 64 µg/mL (≈ 158 µM); in data set [1] (MSSA, MSSA 18-3, read-out: MIC), greater than 64 µg/mL.

As for `CCCc1nc2ccccc2c(=O)n1NC(=O)c1c(O)c2ccccc2n(CC)c1=O` [f15, N-(4-oxo-2-propylquinazolin-3(4H)-yl)-1-ethyl-4-hydroxy-2-oxo-1,2-dihydroquinoline-3-carboxamide], the melting point was 158.6 to 160.7 °C. On S. aureus GyrB, the IC50 came out at 11.9 ± 2.3 µM. Turning to `CCCCc1nc2ccccc2c(=O)n1NC(=O)c1c(O)c2ccccc2n(CC)c1=O` [f16, N-(2-butyl-4-oxoquinazolin-3(4H)-yl)-1-ethyl-4-hydroxy-2-oxo-1,2-dihydroquinoline-3-carboxamide], the melting point was in the range of 139.8 to 140.5 °C. For the same molecule, the IC50 at S. aureus GyrB stood at 2.34 ± 0.34 µM.
